The values below come from patent publication US20240317777A1, “NOVEL MACROCYCLIC AMINOPYRAZOLE COMPOUNDS AS CDK2 INHIBITORS” (Accutar Biotechnology Inc., priority 2023, published 2024).

Assay [1] deals with CDK1-CYCLIN B (Homo sapiens, UniProt P06493). Kind of assay: CDK protein kinase inhibition by ADP-Glo assay, CDK1-CYCLIN B. The class given is biochemical. To be noted: for IC50: read-out: CDK1-CYCLINB, IC50. A digest of the protocol: (§1)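 Luminescent ADP-Glo read-out of ADP generated as kinase/cyclin complexes turn over peptide substrate. Reactions ran at 22° C with 1000 μM ATP, 5 mM Mg2+, pH 7.5 HEPES buffer, 1% DMSO.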

Assay [2] addresses CDK2-CYCLIN E1 (Homo sapiens, UniProt P24941). Kind of assay: CDK protein kinase inhibition by ADP-Glo assay, CDK2-CYCLIN E1. The class given is biochemical. To be noted: read-out: CDK2-CYCLINE, IC50. In a few lines: as §1
For assay [3], the target named is CDK4-CYCLIN D1 (Homo sapiens, UniProt P11802). Kind of assay: CDK protein kinase inhibition by ADP-Glo assay, CDK4-CYCLIN D1. The class given is biochemical. The settings on record: for IC50: read-out: CDK4-CYCLIND1, IC50. In a few lines:
as §1

Assay [4] addresses CDK6-CYCLIN D3 (Homo sapiens, UniProt Q00534). Description: CDK protein kinase inhibition by ADP-Glo assay, CDK6-CYCLIN D3. The class given is biochemical. To be noted: for IC50: read-out: CDK6-CYCLIND3, IC50. A digest of the protocol: as §1
Assay [5] has as its target CDK9-CYCLIN T1 (Homo sapiens, UniProt P50750). Kind of assay: CDK protein kinase inhibition by ADP-Glo assay, CDK9-CYCLIN T1. Format: biochemical. The settings on record: for IC50: read-out: CDK9-CYCLINT1, IC50. A digest of the protocol: as §1
Assay [6] has as its system Phospho-Rb (Ser807/811) in OVCAR3 cells. Kind of assay: Phospho-Rb expression inhibition in OVCAR3 cells quantified by In Cell Western. Format: cell-based. The settings on record: Homo sapiens, OVCAR-3, 24 hours, read-out: OVCAR-3 pRb IC50. A digest of the protocol: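 In-cell western: after 24 h compound exposure at 37° C, fixed OVCAR3 cells co-stained for pRb Ser807/811 (800 nm channel) and total Rb (680 nm channel), imaged by LI-COR Odyssey.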

Assay [7] has as its system CCNE1-amplified OVCAR3 cells. Kind of assay: Cell growth inhibition of CCNE1-amplified OVCAR3 cells (CellTiter-Glo). To be noted: Homo sapiens, OVCAR-3, 144 h, 6 days. Format: cell-based. A digest of the protocol:
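Growth read-out was CellTiter-Glo luminescence, taken after 10 min at room temperature at the end of a 6-day compound exposure at 37 °C. Compounds were diluted from DMSO stocks across various concentrations.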

For assay [8], the system named is CCNE1-normal SKOV3 cells. Kind of assay: Cell growth inhibition of CCNE1-normal SKOV3 cells (CellTiter-Glo). The class given is cell-based. The settings on record: Homo sapiens, SK-OV-3, 144 h, 6 days. A digest of the protocol:
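Growth was measured by CellTiter-Glo luminescence after 6 days' compound exposure at 37 °C. Cells were plated one day before dosing at 1000 per well in medium with 10% FBS, and compounds were diluted from DMSO stocks.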

Setting [9] is: Table 35, recombinant CDK kinase.

Read-outs that look alike come from different tables or passages of the source.

Chain of CDK9-CYCLIN T1 (P50750 whole entry): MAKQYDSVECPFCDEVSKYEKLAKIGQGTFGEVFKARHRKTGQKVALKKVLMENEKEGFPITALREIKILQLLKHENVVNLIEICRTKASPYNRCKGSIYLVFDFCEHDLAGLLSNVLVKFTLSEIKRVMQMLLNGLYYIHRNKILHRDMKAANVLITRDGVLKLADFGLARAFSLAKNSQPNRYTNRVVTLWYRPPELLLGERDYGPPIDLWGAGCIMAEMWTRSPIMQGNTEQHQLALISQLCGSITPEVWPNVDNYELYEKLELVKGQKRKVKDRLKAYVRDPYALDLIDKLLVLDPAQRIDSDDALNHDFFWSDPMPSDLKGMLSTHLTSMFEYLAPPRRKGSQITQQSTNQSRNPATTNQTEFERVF
Chain of CDK9-CYCLIN T1 (O60563 whole entry partner): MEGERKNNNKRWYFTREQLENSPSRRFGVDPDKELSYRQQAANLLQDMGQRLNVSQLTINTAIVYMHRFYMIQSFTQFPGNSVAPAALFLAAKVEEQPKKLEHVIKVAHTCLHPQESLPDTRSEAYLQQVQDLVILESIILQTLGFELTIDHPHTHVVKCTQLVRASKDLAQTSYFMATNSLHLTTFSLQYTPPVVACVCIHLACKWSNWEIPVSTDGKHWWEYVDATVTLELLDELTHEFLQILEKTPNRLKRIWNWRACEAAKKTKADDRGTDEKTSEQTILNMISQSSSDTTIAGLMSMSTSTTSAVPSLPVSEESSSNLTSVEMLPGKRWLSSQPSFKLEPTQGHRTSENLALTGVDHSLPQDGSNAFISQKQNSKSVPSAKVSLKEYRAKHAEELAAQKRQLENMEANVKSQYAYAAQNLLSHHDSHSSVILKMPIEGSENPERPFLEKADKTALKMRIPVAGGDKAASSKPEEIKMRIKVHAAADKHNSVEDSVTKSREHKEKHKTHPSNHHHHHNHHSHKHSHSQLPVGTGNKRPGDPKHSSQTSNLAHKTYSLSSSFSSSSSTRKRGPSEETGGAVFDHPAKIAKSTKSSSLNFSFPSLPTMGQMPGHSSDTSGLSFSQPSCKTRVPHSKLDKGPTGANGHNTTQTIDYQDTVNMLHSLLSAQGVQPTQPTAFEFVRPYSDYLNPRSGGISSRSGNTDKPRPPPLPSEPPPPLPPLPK
Chain of CDK1-CYCLIN B (P06493 whole entry): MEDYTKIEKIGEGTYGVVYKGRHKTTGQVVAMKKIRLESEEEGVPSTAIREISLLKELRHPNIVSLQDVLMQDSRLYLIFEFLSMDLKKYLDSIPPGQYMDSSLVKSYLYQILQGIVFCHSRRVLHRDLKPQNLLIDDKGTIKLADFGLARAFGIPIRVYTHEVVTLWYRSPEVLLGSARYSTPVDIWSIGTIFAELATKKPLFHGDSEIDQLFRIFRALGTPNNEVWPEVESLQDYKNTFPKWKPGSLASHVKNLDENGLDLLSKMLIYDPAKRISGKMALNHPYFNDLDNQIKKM
Chain of CDK1-CYCLIN B (P14635 whole entry partner): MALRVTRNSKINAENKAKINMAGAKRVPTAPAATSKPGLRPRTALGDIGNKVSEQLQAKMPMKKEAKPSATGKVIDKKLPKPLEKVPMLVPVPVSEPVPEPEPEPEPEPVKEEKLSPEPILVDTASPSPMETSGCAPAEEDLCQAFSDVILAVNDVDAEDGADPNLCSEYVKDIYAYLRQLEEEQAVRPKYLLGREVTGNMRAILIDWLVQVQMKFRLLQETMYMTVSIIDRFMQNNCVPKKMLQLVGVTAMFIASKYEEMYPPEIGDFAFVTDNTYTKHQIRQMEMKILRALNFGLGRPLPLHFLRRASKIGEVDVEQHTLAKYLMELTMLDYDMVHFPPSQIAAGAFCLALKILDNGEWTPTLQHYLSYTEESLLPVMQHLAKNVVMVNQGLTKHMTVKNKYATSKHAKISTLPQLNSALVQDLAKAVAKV
Chain of CDK6-CYCLIN D3 (Q00534 whole entry): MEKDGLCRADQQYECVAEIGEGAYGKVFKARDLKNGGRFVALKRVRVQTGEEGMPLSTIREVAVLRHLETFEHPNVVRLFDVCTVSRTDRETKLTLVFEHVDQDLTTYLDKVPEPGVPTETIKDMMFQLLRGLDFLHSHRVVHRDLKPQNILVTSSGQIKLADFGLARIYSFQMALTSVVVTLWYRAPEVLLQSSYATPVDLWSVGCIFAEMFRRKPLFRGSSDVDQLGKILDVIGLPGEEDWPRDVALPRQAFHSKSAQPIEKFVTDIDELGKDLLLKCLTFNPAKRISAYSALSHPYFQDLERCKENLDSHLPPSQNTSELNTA
Chain of CDK6-CYCLIN D3 (P30281 whole entry partner): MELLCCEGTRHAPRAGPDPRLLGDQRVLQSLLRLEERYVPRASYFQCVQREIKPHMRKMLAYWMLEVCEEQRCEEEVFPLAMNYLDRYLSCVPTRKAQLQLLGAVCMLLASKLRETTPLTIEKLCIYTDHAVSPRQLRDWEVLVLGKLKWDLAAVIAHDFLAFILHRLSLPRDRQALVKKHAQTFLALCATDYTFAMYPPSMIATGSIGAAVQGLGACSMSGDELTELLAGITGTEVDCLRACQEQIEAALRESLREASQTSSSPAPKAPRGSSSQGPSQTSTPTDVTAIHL
Chain of CDK4-CYCLIN D1 (P11802 whole entry): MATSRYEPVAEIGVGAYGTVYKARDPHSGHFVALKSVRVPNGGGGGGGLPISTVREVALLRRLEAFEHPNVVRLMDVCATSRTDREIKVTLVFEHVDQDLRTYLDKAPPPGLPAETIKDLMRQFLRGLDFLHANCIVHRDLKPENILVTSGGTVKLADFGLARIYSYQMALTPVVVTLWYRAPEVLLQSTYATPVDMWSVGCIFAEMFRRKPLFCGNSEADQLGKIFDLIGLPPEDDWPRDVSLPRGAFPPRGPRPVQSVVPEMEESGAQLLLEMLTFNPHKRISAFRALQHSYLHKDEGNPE
Chain of CDK4-CYCLIN D1 (P24385 whole entry partner): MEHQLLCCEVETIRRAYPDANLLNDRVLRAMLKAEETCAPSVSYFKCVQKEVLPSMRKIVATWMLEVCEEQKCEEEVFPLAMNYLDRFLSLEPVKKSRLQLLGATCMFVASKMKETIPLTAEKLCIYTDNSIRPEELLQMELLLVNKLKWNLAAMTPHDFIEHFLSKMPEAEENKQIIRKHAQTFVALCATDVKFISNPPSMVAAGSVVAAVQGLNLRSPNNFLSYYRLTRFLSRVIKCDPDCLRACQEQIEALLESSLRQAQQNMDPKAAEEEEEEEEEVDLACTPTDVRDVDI

For `C[C@H]1CC[C@H](C)Oc2cncc(c2)Nc2cc(n[nH]2)[C@H]2CC[C@H](C2)OC(=O)N1` [Compound 151, (1^1S,1^3R,6S,9S,Z)-6,9-dimethyl-2^1H-5,12-dioxa-3,10-diaza-4(3,5)-pyridina-2(3,5)-pyrazola-1(1,3)-cyclopentanacyclododecaphan-11-one], the IC50 in assay [1] (ADP-Glo, 1000 μM ATP, Table 21) is ≤ 10 nM; in assay [2] (ADP-Glo, 1000 μM ATP, Table 21), ≤ 10 nM; in assay [3] (ADP-Glo, 1000 μM ATP, Table 21), 50 to 100 nM; in assay [4] (ADP-Glo, 1000 μM ATP, Table 21), 50 to 100 nM; in assay [5] (ADP-Glo, 1000 μM ATP, Table 21), 100 to 500 nM; in assay [6] it was 2 to 10 nM. Also, the IC50 in assay [7] was 2 to 10 nM; in assay [8] it was 250 to 1250 nM. In addition, in assay [1] (CDK2 versus CDK1, Table 22), the “CDK2 Fold selectivity, CDK1” value is “E (E, <20)”. In addition, in assay [3] (CDK2 versus CDK4, Table 22), the “CDK2 Fold selectivity, CDK4” value was “D (D, >20 and ≤50)”. In addition, in assay [4] (CDK2 versus CDK6, Table 22), the “CDK2 Fold selectivity, CDK6” value was “D (D, >20 and ≤50)”. Besides, in assay [5] (CDK2 versus CDK9, Table 22), the “CDK2 Fold selectivity, CDK9” value is “D (D, >20 and ≤50)”.

On to `O=C1N[C@H]2C[C@H](COc3cc(ccn3)Nc3cc(n[nH]3)[C@H]3CC[C@H](C3)O1)C2` [Compound 108, (1^1S,1^3R,7^1R,7^3S,Z)-2^1H-5,10-dioxa-3,8-diaza-4(4,2)-pyridina-2(3,5)-pyrazola-1(1,3)-cyclopentana-7(1,3)-cyclobutanacyclodecaphan-9-one], for which the IC50 in assay [1] (ADP-Glo, 1000 μM ATP, Table 11) is 10 to 50 nM; in assay [1] (setting [9]) it was 10 to 50 nM; in assay [2] (ADP-Glo, 1000 μM ATP, Table 11) it was ≤ 10 nM; in assay [2] (setting [9]), ≤ 10 nM; in assay [3] (ADP-Glo, 1000 μM ATP, Table 11), 100 to 500 nM; in assay [3] (setting [9]), 10 to 50 nM. Further, the IC50 in assay [4] (ADP-Glo, 1000 μM ATP, Table 11) fell in the range of 100 to 500 nM; in assay [4] (setting [9]), 50 to 100 nM; in assay [5] (ADP-Glo, 1000 μM ATP, Table 11), 100 to 500 nM; in assay [5] (setting [9]) it was 50 to 100 nM; in assay [6] it was 2 to 10 nM; in assay [7] it was 2 to 10 nM. This compound yielded an IC50 in assay [8] of 250 to 1250 nM. For the same compound, in assay [1] (CDK2 versus CDK1, Table 12), the “CDK2 Fold selectivity, CDK1” value is “B (B, >100 and ≤500)”. The “CDK2 Fold selectivity against CDK1” value in assay [1] (Table 36, fold selectivity for CDK2 over CDK1, recombinant CDK kinases) was “E (E, <20)”. Also, the “CDK2 Fold selectivity, CDK4” value in assay [3] (CDK2 versus CDK4, Table 12) is “B (B, >100 and ≤500)”. Moreover, in assay [3] (Table 36, fold selectivity for CDK2 over CDK4, recombinant CDK kinases), the “CDK2 Fold selectivity against CDK4” value is “E (E, <20)”. Further, the “CDK2 Fold selectivity, CDK6” value in assay [4] (CDK2 versus CDK6, Table 12) is given as “A (A, ≥500)”. Further, the “CDK2 Fold selectivity against CDK6” value in assay [4] (Table 36, fold selectivity for CDK2 over CDK6, recombinant CDK kinases) was “D (D, >20 and ≤50)”. Besides, in assay [5] (CDK2 versus CDK9, Table 12), the “CDK2 Fold selectivity, CDK9” value is listed as “A (A, ≥500)”. Further, the “CDK2 Fold selectivity against CDK9” value in assay [5] (Table 36, fold selectivity for CDK2 over CDK9, recombinant CDK kinases) is “D (D, >20 and ≤50)”.

With `C[C@H]1CCCOc2cc(ccn2)Nc2cc([nH]n2)[C@H]2CC[C@H](C2)OC(=O)N1` [Compound 9, (1^1S,1^3R,9S,Z)-9-methyl-2^1H-5,12-dioxa-3,10-diaza-4(4,2)-pyridina-2(3,5)-pyrazola-1(1,3)-cyclopentanacyclododecaphan-11-one], the IC50 in assay [1] (ADP-Glo, 1000 μM ATP, Table 7) is 100 to 500 nM; in assay [1] (ADP-Glo, 1000 μM ATP, Table 29) it was 100 to 500 nM; in assay [2] (ADP-Glo, 1000 μM ATP, Table 7), ≤ 10 nM; in assay [2] (ADP-Glo, 1000 μM ATP, Table 29), 10 to 50 nM; in assay [3] (ADP-Glo, 1000 μM ATP, Table 7) it was > 500 nM; in assay [3] (ADP-Glo, 1000 μM ATP, Table 29), > 500 nM. Also, the half-maximal inhibitory concentration (IC50) was > 500 nM in assay [4] (ADP-Glo, 1000 μM ATP, Table 7); > 500 nM in assay [4] (ADP-Glo, 1000 μM ATP, Table 29); > 500 nM in assay [5] (ADP-Glo, 1000 μM ATP, Table 7); > 500 nM in assay [5] (ADP-Glo, 1000 μM ATP, Table 29); 10 to 50 nM in assay [6]; 10 to 50 nM in assay [7]. In addition, the IC50 in assay [8] was > 1250 nM. Moreover, in assay [1] (CDK2 versus CDK1, Table 8), the “CDK2 fold selectivity over CDK1” value is “C (C, >50 and ≤100)”. The “CDK2 Fold selectivity, CDK1” value in assay [1] (CDK2 versus CDK1, Table 30) was “E (E, <20)”. Also, in assay [3] (CDK2 versus CDK4, Table 8), the “CDK2 Fold Sensitivity, CDK4” value was “B (B, >100 and ≤500)”. In assay [3] (CDK2 versus CDK4, Table 30), the “CDK2 Fold selectivity, CDK4” value is “C (C, >50 and ≤100)”. Besides, in assay [4] (CDK2 versus CDK6, Table 8), the “CDK2 Fold Sensitivity, CDK6” value is “B (B, >100 and ≤500)”. For the same compound, the “CDK2 Fold selectivity, CDK6” value in assay [4] (CDK2 versus CDK6, Table 30) is “C (C, >50 and ≤100)”. Besides, in assay [5] (CDK2 versus CDK9, Table 8), the “CDK2 Fold Sensitivity, CDK9” value is “B (B, >100 and ≤500)”. Moreover, the “CDK2 Fold selectivity, CDK9” value in assay [5] (CDK2 versus CDK9, Table 30) was “C (C, >50 and ≤100)”.

Regarding `C[C@H]1CC/C=C/c2cc(ccn2)Nc2cc(n[nH]2)[C@H]2CC[C@H](C2)OC(=O)N1` [Compound 125, (1^1S,1^3R,2^4Z,5E,9S)-9-methyl-2^1H-12-oxa-3,10-diaza-4(4,2)-pyridina-2(3,5)-pyrazola-1(1,3)-cyclopentanacyclododecaphan-5-en-11-one], the IC50 in assay [1] (ADP-Glo, 1000 μM ATP, Table 19) was 100 to 500 nM; in assay [2] (ADP-Glo, 1000 μM ATP, Table 19) it was ≤ 10 nM; in assay [3] (ADP-Glo, 1000 μM ATP, Table 19) it was 100 to 500 nM; in assay [4] (ADP-Glo, 1000 μM ATP, Table 19), 100 to 500 nM; in assay [5] (ADP-Glo, 1000 μM ATP, Table 19), 100 to 500 nM; in assay [6] it was 2 to 10 nM. For the same compound, the results for the IC50 in assay [7] and in assay [8] were 10 to 50 nM and 250 to 1250 nM, respectively. The “CDK2 Fold selectivity, CDK1” value in assay [1] (CDK2 versus CDK1, Table 20) is “E (E, <20)”. For the same compound, the “CDK2 Fold selectivity, CDK4” value in assay [3] (CDK2 versus CDK4, Table 20) was “E (E, <20)”. In assay [4] (CDK2 versus CDK6, Table 20), the “CDK2 Fold selectivity, CDK6” value is “D (D, >20 and ≤50)”. Also, the “CDK2 Fold selectivity, CDK9” value in assay [5] (CDK2 versus CDK9, Table 20) was “D (D, >20 and ≤50)”.

As to `C[C@@H]1CC/C=C/c2cc(ccn2)Nc2cc(n[nH]2)[C@H]2CC[C@H](C2)OC(=O)N1` [Compound 126, (1^1S,1^3R,2^4Z,5E,9R)-9-methyl-2^1H-12-oxa-3,10-diaza-4(4,2)-pyridina-2(3,5)-pyrazola-1(1,3)-cyclopentanacyclododecaphan-5-en-11-one], the IC50 in assay [1] (ADP-Glo, 1000 μM ATP, Table 19) was 100 to 500 nM; in assay [2] (ADP-Glo, 1000 μM ATP, Table 19), 50 to 100 nM; in assay [3] (ADP-Glo, 1000 μM ATP, Table 19), 100 to 500 nM; in assay [4] (ADP-Glo, 1000 μM ATP, Table 19), 100 to 500 nM; in assay [5] (ADP-Glo, 1000 μM ATP, Table 19) it was 100 to 500 nM; in assay [6], 10 to 50 nM. The IC50 in assay [7] was 50 to 250 nM; in assay [8], 250 to 1250 nM. Moreover, the “CDK2 Fold selectivity, CDK1” value in assay [1] (CDK2 versus CDK1, Table 20) is recorded as “E (E, <20)”. Besides, the “CDK2 Fold selectivity, CDK4” value in assay [3] (CDK2 versus CDK4, Table 20) is “E (E, <20)”. In addition, the “CDK2 Fold selectivity, CDK6” value in assay [4] (CDK2 versus CDK6, Table 20) was “E (E, <20)”. For the same compound, the “CDK2 Fold selectivity, CDK9” value in assay [5] (CDK2 versus CDK9, Table 20) is “E (E, <20)”.
